Test: gradient 5% acetonitrile 3 min, to 50% in 2 min, to 85% in 15 min, held 3 min, 100 µL/min
Details: column: Zorbax Extend-C18 2.1 x 50 mm; eluents: water / acetonitrile, 0.1% formic acid
How it was run: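 Mixtures of ~100 pure standards were chromatographed on a Zorbax Extend-C18 column (2.1 × 50 mm, 1.8 μm) at 100 μL/min using water and acetonitrile, each with 0.1% formic acid. Detection used a quadrupole time-of-flight mass spectrometer in positive and negative ionization mode, and data collection spanned 3 months. Retention time was obtained from adduct peaks picked computationally and each checked manually.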

Row | Compound | RP-LC retention time
1 | CCOc1ccc(Nc2c(C(=O)N3CCCCC3C)cnc3nc(C)ccc23)cc1 (configuration not stated) | 668 s
2 | CCOC(=O)c1[nH]c(C)c(C(=O)C(C)N(C(=O)c2cccc(F)c2)C2CC2)c1C (configuration not stated) | 988 s
3 | O=C(CC1CCN(C(=O)c2ccc3nc(-c4ccccc4)oc3c2)CC1)NCc1ccco1 | 789 s
4 | Cc1ccn2c(NC(=O)CCc3ccccc3)c(-c3ccc(F)cc3)nc2c1 | 703 s
5 | CCCn1ccc2oc(C)c(C(=O)NCc3c(C)cc(C)cc3C)c2c1=O | 1200 s
6 | CCc1ccc(NC(=O)Cc2c(C)n(C)c3nc(-c4ccccc4)nn3c2=O)cc1 | 887 s
7 | Fc1ccc(Nc2nc(N3CCOCC3)nc3[nH]ncc23)cc1 | 601 s
8 | O=C(Nc1ccc(F)c(Cl)c1)N1CCc2nc(-c3ccccc3)ncc2C1 | 1010 s
9 | COC(=O)c1c(C)[nH]c(C(=O)N2CCC(CC(=O)NCc3ccccc3C)CC2)c1C | 749 s
10 | CCSc1nnc(NC(=O)C2CCN(S(=O)(=O)c3cn(CC)cn3)CC2)s1 | 715 s
11 | O=C(c1cc2cc(Br)ccc2[nH]1)N1CCCC1 | 905 s
12 | Cc1ccc(C)c(NC(=O)N2CCc3nc(-c4ccc(F)cc4)ncc3C2)c1 | 987 s
13 | CNC(=O)c1nc(N2CCSCC2)c2cnn(C)c2n1 | 632 s
14 | C=CCNc1c(C(=O)OC)c(=O)[nH]c2ccc(F)cc12 | 679 s
15 | COc1cc2c3c(n(C)c(=O)c2cc1OC)-c1cc2c(cc1C3=O)OCO2 | 840 s
16 | Cc1c(-c2ccnc(N3CCC(C)CC3)n2)cnc2nc(-c3ccccc3)nn12 | 1320 s
17 | CCCn1cc(CCNC(=O)Nc2cc(F)c(F)c(F)c2)c2cccnc21 | 866 s
18 | CCn1c(=O)c(N2CCC(NC(=O)Nc3ccc4c(c3)OCCO4)CC2)nc2ccccc21 | 838 s
19 | COc1cc(C(=O)N(Cc2ccc(N(C)C)cc2)C2CCS(=O)(=O)C2)cc(OC)c1OC (configuration not stated) | 634 s
20 | CNC(=O)NC1CCN(c2nc3cccnc3n(Cc3ccccc3)c2=O)CC1 | 801 s

Row | Compound | RP-LC retention time
21 | CCOc1ccc(-n2ccn3cc(-c4cccc(Cl)c4)nc3c2=O)cc1 | 947 s
22 | Cc1cccc(-c2nc3sc(N4CCCCC4)nn3c2NC(=O)C2CC2)c1 | 891 s
23 | COc1ccc2cc(C(=O)N3CCC(CC(=O)NCCc4c[nH]c5ccc(Cl)cc45)CC3)[nH]c2c1 | 841 s
24 | O=C(Nc1nccs1)C1CC(=O)N(c2n[nH]c3cccc(F)c23)C1 (configuration not stated) | 650 s
25 | Cc1cc(N2CCN(C)CC2)nc2ccc(NC(=S)NCc3ccco3)cc12 | 564 s
26 | COc1ccccc1-c1csc(-c2nnn(-c3ccc(C)c(C)c3)c2N)n1 | 1220 s
27 | O=C([C@H]1C[C@@H](F)CN1S(=O)(=O)c1cccc(Cl)c1)N1CCOCC1 | 717 s
28 | CS(=O)(=O)N1CCc2nn(Cc3ccccc3)c(=O)n2CC1 | 641 s
29 | COc1cc(-c2nc3ccc(C)cn3c2Nc2ccc(Cl)cc2)ccc1O | 698 s
30 | O=C(COc1ccccc1[N+](=O)[O-])Nc1nc(-c2ccccc2)cs1 | 1040 s
31 | O=C(NCCC1CCN(S(=O)(=O)c2ccccc2)CC1)Nc1ccc(F)cc1F | 910 s
32 | COc1ccc(NC(=O)Cn2c(=O)n(-c3ccccc3)c(=O)c3c2cc(C)n3C)cc1OC | 791 s
33 | COc1ccc(C(=O)Nc2c(-c3ccccc3)nc3ccccn23)cc1OC | 608 s
34 | CC(C)Cc1cc(-c2nn3c(-c4ccc(F)cc4)nnc3s2)n[nH]1 | 1010 s
35 | CCn1ccc(C(=O)N2c3ccccc3CC2c2nc(C3CC3)no2)n1 (configuration not stated) | 924 s
36 | COc1cccc(C2CC(c3ccc(Cl)cc3)=NC3(CCN(C(C)=O)CC3)N2)c1O (configuration not stated) | 686 s
37 | CC(C)CC(=O)Nc1ccc2c(c1)N(C(=O)c1ccco1)CCC2 | 802 s
38 | Cc1ccc(S(=O)(=O)NCCCC(=O)NCc2ccccc2)cc1 | 732 s
39 | COc1ccccc1NC(=O)N1CCCC1c1nc(-c2ccccc2)no1 (configuration not stated) | 1010 s
40 | COC(=O)c1ccc(C(=O)NCC2CCN(S(C)(=O)=O)CC2)cc1 | 637 s

Row | Compound | RP-LC retention time
41 | CCN1CCN(C(=O)c2ccc(S(=O)(=O)c3ccccc3)s2)CC1 | 617 s
42 | O=C(Cn1nc2nc(Nc3ccc(F)cc3)ccn2c1=O)N1CCOCC1 | 631 s
43 | COCCC(=O)N1CCC2(CCC2OC)CC1 (configuration not stated) | 664 s
44 | CCOC(=O)N1CCN(C(=O)CCNc2c(-c3cccc(F)c3)nc3cnccn23)CC1 | 689 s
45 | COc1ccc(C2C(C(=O)NCc3ccccc3OC)c3ccccc3C(=O)N2C)cc1 (configuration not stated) | 864 s
46 | CCN1CCN(c2cc(C(=O)O)c3cc(NS(=O)(=O)c4ccccc4C)ccc3n2)CC1 | 618 s
47 | Cc1noc(C)c1S(=O)(=O)N1CCC(C(=O)NCc2csc(-c3ccccc3)n2)CC1 | 870 s
48 | CCn1cc(CCN2CCN(S(=O)(=O)c3ccc(F)cc3)CC2)c2cccnc21 | 638 s
49 | Cc1ccc(-c2noc(CN3C(=O)COc4ccc(C(C)(C)C)cc43)n2)cc1 | 1310 s
50 | CCc1nc2cc(-c3noc(C4(c5ccccc5)CC4)n3)ccc2o1 | 1220 s
51 | COc1ccc(-c2nnc(COc3ccc(NC(=O)c4cnccn4)cc3)o2)cc1 | 800 s
52 | CC1=C(c2ccccc2)S(=O)(=O)N=C1N1CCCN(C(=O)c2ccccc2F)CC1 | 802 s
53 | COc1ccc(OC)c(S(=O)(=O)N2C[C@@H](F)C[C@H]2C(=O)N2CCOCC2)c1 | 906 s
54 | O=C(COc1ccc(Cl)cc1)Nc1cccc2c1C(=O)NC2=O | 854 s
55 | Cc1c(C(=O)NC2CC2)cnn1-c1ccc(-c2nc(C(C)C)no2)cn1 | 849 s
56 | Cc1nnc(NC(=O)CN(C)c2nc3c(Cl)cccc3s2)s1 | 742 s
57 | N#Cc1ccccc1NC(=O)C(=O)NCc1ccccn1 | 572 s
58 | CCCN(CCC)C(=O)c1cc(NC(=O)C(C)C)cnc1N1CCNCC1 | 606 s
59 | Cc1ccc(C)c(NC(=O)Cn2cccc2-c2nc(-c3ccc4c(c3)OCO4)no2)c1 | 1050 s

More lines, now with the values ahead:

Row | RP-LC retention time | Compound
60 | 770 s | CCN(Cc1ccccc1)C(=O)[C@H]1[C@@H](c2cc(OC)c(OC)c(OC)c2)c2cc3c(cc2[C@@H](O)[C@@H]1CO)OCO3
61 | 608 s | O=C(c1c(F)cccc1F)N1CCN(c2nc(CN3CCOCC3)cs2)CC1
62 | 774 s | O=C(Cn1c(=O)c(CCC(=O)NC2CC2)nc2ccccc21)Nc1cc(F)cc(F)c1
63 | 1100 s | Cc1ccc(CNC(=O)Nc2ccc(-c3nc(-c4ccccc4)co3)cc2)cc1
64 | 658 s | O=C(COc1ccccc1)N1CCC(CNS(=O)(=O)c2cccnc2)CC1
65 | 706 s | CCC1CN(C(=O)N2CCC(C(=O)NCCc3ccco3)CC2)c2cc(C)ccc2O1 (configuration not stated)
66 | 586 s | O=C(C1CCCO1)N1CCN(c2ccc(-n3cccn3)nn2)CC1 (configuration not stated)
67 | 905 s | COc1ccc(-c2nc(-c3cccc(-c4ccn[nH]4)c3)no2)cc1OC
68 | 606 s | Cc1cccc(C)c1NC(=O)Cn1ncc2c(N3CCN(c4ccccn4)CC3)ncnc21
69 | 1290 s | CCOc1ccc(-c2csc(NC(=O)CCCOc3ccc(CC)cc3)n2)cc1
70 | 1090 s | Cc1ccc(-c2ccc3nn(Cc4nc(-c5cccc(C(F)(F)F)c5)no4)c(=O)n3n2)cc1
71 | 840 s | CCCn1cnc2cc(-c3noc(COc4cccc(C)c4)n3)ccc21
72 | 946 s | COC(=O)c1sc2ccccc2c1NC(=O)c1ccc(S(=O)(=O)N2CCCC2)cc1
73 | 571 s | Cc1nn2cnnc2c(C)c1CCC(=O)NCCN(C)Cc1ccccc1
74 | 767 s | COc1cc(C(=O)NC2CCN(c3cc(-c4ccc(Cl)cc4)[nH]n3)C2)cc(OC)c1OC (configuration not stated)
75 | 794 s | CC(C)N1CCn2cc(S(=O)(=O)Nc3ccc(F)c(F)c3)cc2C1=O
76 | 608 s | O=C(CCNc1cnc2cnccn12)NCc1cccc(C(F)(F)F)c1
77 | 1250 s | CCOc1ccc(-c2csc(Cc3nc(-c4ccc(F)cc4)no3)n2)cc1
78 | 680 s | Cn1cc(C(=O)OCC2CCN(CCNS(C)(=O)=O)CC2)c2ccccc21
79 | 823 s | O=C(CCn1nnc2cc(-c3noc(COc4ccc(F)cc4)n3)ccc21)N1CCOCC1
80 | 729 s | COCc1c(C(=O)O)nnn1-c1cccc(Br)c1
81 | 849 s | Cc1cccc(NC(=O)C2CCCN(c3ncnc4onc(-c5ccc(F)cc5)c34)C2)n1 (configuration not stated)
82 | 741 s | O=C(CCc1csc(NC(=O)c2ccc(F)cc2)n1)Nc1ccc(-n2cnnn2)cc1
83 | 794 s | CC(=O)c1ccc(N=NC(C(N)=O)C2NC(C)(C)Cc3ccccc32)cc1 (configuration not stated)
84 | 840 s | O=C(c1ccc2c(c1)OCO2)N1CCC2(CC1)NC(=O)N(Cc1cccc(Cl)c1)C2=O
85 | 583 s | O=C(COc1ccc(C(=O)N2CCN(CCc3ccccc3)CC2)cc1)C1CC1
86 | 971 s | Cc1cc(OCC(=O)Nc2ccccc2C(F)(F)F)nc(N2CCN(c3ccccc3)CC2)n1
87 | 1070 s | CCn1cc(-c2nc(C(=O)NCc3ccccc3Cl)cs2)c2cccnc21
